Experimental data: US10173999B2, “Cyclic amine derivative and pharmaceutical use thereof” (Toray Industries, Inc., priority 2015, dated 2019)
Entries after “also recorded” stand apart in the source; their conditions may differ. Where a name gives a salt, the structure may show the parent alone.

Experiments:
[1] = Stability test in human liver microsomes; assay type: in vitro ADME; settings: pH 7.4; human liver microsomes 0.5 mg/mL, test compound 2 μmol/L, 37° C., 0-30 min; read-out: Hepatic intrinsic clearance, Human
Description: (§1) Experiment was performed using the compound of Example 11, Comparative Example 1 or Comparative Example 6 as a test compound and human liver microsomes (from Xenotech), monkey liver microsomes (from Xenotech), dog liver microsomes (from Xenotech) or mouse liver microsomes (from Xenotech) as the liver microsomes.
(§2) The reagents to be used in the stability test in liver microsomes were prepared as follows. A D-glucose 6-phosphate disodium salt (hereinafter referred to as G6P) was dissolved with distilled water to prepare an aqueous solution of G6P (100 mmol/L). Glucose 6-phosphate dehydrogenase (1000 units) from Yeast (hereinafter referred to as G6PDH) was dissolved with distilled water (5 mL) to prepare an aqueous solution of G6PDH (200 units/mL). MgCl2 was dissolved with distilled water to prepare an aqueous solution of MgCl2 (100 mmol/L). […]
(§3) With respect to the chromatogram of each well obtained by LC/MS analysis or LC/MS/MS analysis, the test compound residual ratio (%) at each reaction time t (min) was calculated based on the peak area at the reaction time of 0 minute as 100%. […]

[2] = Stability test in dog liver microsomes; assay type: in vitro ADME; settings: pH 7.4; dog liver microsomes 0.5 mg/mL, test compound 2 μmol/L, 37° C., 0-30 min; read-out: Hepatic intrinsic clearance, Dog
Description: as §1, §2, §3

[3] = system: human aortic smooth muscle cells (T/G HA-VSMG); test: Inducibility of cytoplasmic vacuolation in human aortic smooth muscle cells; assay type: cell-based; settings: Concentration: 1.0 mmol/L
Description: As a test compound, the compound of Example 3, 9, 11, 12 or compounds of Comparative Examples 2 to 6 were used. Canine aortic smooth muscle cells (Canine Aortic Smooth Muscle Cells, supply source: Toyobo Co., Ltd.) or human aortic smooth muscle cells of (T/G HA-VSMG, supply source: ATCC) were treated with a test compound (1.0 or 1.2 mmol/L in concentration) for 24 hours or 2 weeks. The cells were stained with HE, immunohistochemically for LAMP-2 or toluidine blue, and thereafter the presence or absence of cytoplasmic vacuolation was determined by using an optical microscope.

Cr1: CD (SD) rats = test: Evaluation of safety in rat, two-week oral administration test; assay type: in vivo; settings: oral
Description: As a test compound, the compound of Example 11 or Comparative Example 2 was used. The compound of Example 11 or Comparative Example 2 was administered orally to Cr1: CD (SD) rats (7 weeks old, female and male; from Charles River Laboratories, Inc.), for 2 weeks. Clinical observation, body weight measurement, food intake measurement, ophthalmologic examination (the compound of Example 11, alone), hematological examination, blood chemistry examination, urinalysis, bone marrow examination, pathological anatomical examination, organ weight measurement, histopathological examination and immunotoxicity test were carried out. In addition, toxicokinetics (TK) measurement was carried out on Day 1 and Day 14 after administration. It was confirmed that each test compound was exposed. The administration dose of a test compound was specified as 0, 250, 500, 1000 mg/kg/day and administration volume was specified as 10 mL/kg. As an administration solvent, phosphate-buffered saline was used for the compound of Example 11 and distilled water was used for the compound of Comparative Example 2.

CN(C)C1CCN(C(=O)CCc2nccn2C)CC1 [Comparative Example 1, 1-(4-(dimethylamino)piperidin-1-yl)-3-(1-methyl-1H-imidazol-2-yl)propan-1-one hydrochloride]
microsomal CLint at 2 μmol/L [1]: 1 µL/min/mg

CC(C)n1ccnc1CCC(=O)N1CCC(N(C)C)CC1 [Comparative Example 6, 1-(4-(dimethylamino)piperidin-1-yl)-3-(1-isopropyl-1H-imidazol-2-yl)propan-1-one hydrochloride]
microsomal CLint at 2 μmol/L [2]: 6 µL/min/mg

CN(C)C1CCN(C(=O)C[C@H](O)c2nccn2C)CC1 [Example 11, (S)-1-(4-(dimethylamino)piperidin-1-yl)-3-hydroxy-3-(1-methyl-1H-imidazol-2-yl)propan-1-one]
Inducibility of cytoplasmic vacuolation ([3]; Treatment time: 2 weeks): not observed; also recorded: Absent
Inducibility of cytoplasmic vacuolation ([3]; Treatment time: 24 hours): Absent
no observed adverse effect level (Cr1: CD (SD) rats; 2 weeks): ≥ 1000 mg/kg/day
findings in examination items (Cr1: CD (SD) rats; up to 1000 mg/kg/day for 2 weeks): abnormality was not observed
